# Laboratory results taken from patent publication US8178699B2, “Modulators of CCR9 receptor and methods of use thereof” (Pfizer Inc., priority 2008, dated 2012).
# Counter-ions that a name gives are not always drawn.
# Target: T1, human CCR9 receptor (Homo sapiens, UniProt P51686)
# T1 construct: expressed in transfected cells
# T1 sequence (P51686 1-369): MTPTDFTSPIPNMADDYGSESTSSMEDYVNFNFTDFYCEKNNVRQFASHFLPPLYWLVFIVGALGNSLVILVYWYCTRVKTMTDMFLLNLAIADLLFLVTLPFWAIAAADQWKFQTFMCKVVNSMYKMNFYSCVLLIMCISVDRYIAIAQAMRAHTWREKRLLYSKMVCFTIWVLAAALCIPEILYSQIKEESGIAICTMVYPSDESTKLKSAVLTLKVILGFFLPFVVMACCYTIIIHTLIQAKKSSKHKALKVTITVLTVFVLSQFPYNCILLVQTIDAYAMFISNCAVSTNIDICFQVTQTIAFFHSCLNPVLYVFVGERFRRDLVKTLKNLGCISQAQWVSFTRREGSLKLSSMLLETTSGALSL
# Test: CCR9 FLIPR/FlexStation Assay (inhibition of TECK induced calcium mobilization)
# Type: cell-based
# Conditions: CCR9 antagonist activity; TECK induced calcium mobilization in CCR9-Flp-CHO cells stably over expressing human CCR9; rhTECK at EC70; read-out: Binding IC50
# Excerpt: Exemplary methods are described in US Publication Nos. US2004/0180892 and US2005/0049286, which are incorporated herein by reference. An exemplary assay for determining CCR9 antagonist activity of the compounds provided herein is CCR9 FLIPR/FlexStation Assay. In certain embodiments, the following protocol is used for the assay:
# CCR9 FLIPR/FlexStation Assay Protocol
# Calcium assay in FLIPR/FlexStation determines inhibitors of TECK induced calcium mobilization in CCR9-Flp-CHO cells that stably over express human CCR9 receptor. CCR9-Flp-CHO cells are seeded at 25,000 cells/well in a clear bottom, black wall 96-well plate (Greiner #655090) one day prior to assay. Cells are grown in a tissue culture incubator at 37° C. with 5% CO2 for 18 to 24 hours.
# Wash buffer and dye loading buffer are prepared fresh each time the assay is performed. Wash buffer is prepared according to the following protocol: 20 ml 10×HBSS (Invitrogen Gibco #14065-056), 4 ml 1M HEPES (Sigma H3784), 174 ml sterile deionized water; then add 140 mg probenecid (Sigma P8761) dissolved in 2 ml 1M NaOH (Fisher S318) to solution and pH to 7.4. This wash buffer contains 1×HBSS, 20 mM HEPES and 2.5 mM probenecid. For one 96-well plate, dye loading buffer is prepared as following: 11 ml wash buffer, 44 μl Fluo-4/pluoronic acid mix (prepared from 22 μL aliquot of 2 mM Fluo-4 (Molecular Probes F14202, 1 mg/tube)+22 μl 20% pluronic F-127 (Molecular Probes P3000MP).
# Cells are loaded with dye according to the protocol below:
# 1. Prepare wash buffer with 1×HBSS/HEPES at room temperature
# 2. Prepare loading buffer (keep in dark)
# 3. Aspirate culture media and wash with 100 μl wash buffer per well×1
# 4. Add 100 μl dye loading buffer to each well
# 5. Incubate at 37° C. for 30 minutes
# 6. Aspirate loading buffer
# 7. Wash with 100 μl wash buffer per well×3
# 8. Add 100 μl wash buffer per well
# 9. Incubate at 37° C. for 30 minutes
# 10. Assay plate with FLIPR or FlexStation
# 10 mM stock compounds in DMSO are prepared and diluted in DMSO to 1 mM. Compounds are diluted in wash buffer to make 8 point series dilutions containing same final concentration of DMSO (1%). Compounds are tested in duplicate wells for each point. Ligand rhTECK (R&D Systems 334-TK) was diluted to 6× of its EC70 with wash buffer. Appropriate amount of 6× ligand is added to each well. Data is analyzed using XLfit3 software to calculate IC50 value of antagonist activity for each compound.
# CCR9 antagonist activity of exemplary compounds was determined using CCR9 FLIPR/FlexStation Assay as described in Section 4.4 and is provided in Table 1 below. The IC50 for the compounds are represented as follows: A≦100 nM; B>100-500 nM; C>500 nM.
row,Structure (SMILES),IC50
1,"CC(C)(C)c1ccc(S(=O)(=O)Nc2ccsc2C(=O)O)c(Br)c1 [Example 1, 3-(2-bromo-4-tert-butylphenylsulfonamido)thiophene-2-carboxylic acid, sodium salt]",≤ 0.1 µM
2,"CC(C)(C)c1ccc(S(=O)(=O)Nc2ccsc2C(=O)O)c(-c2ccc(Cl)cc2)c1 [Example 2, 3-(5-tert-butyl-4′-chlorobiphenyl-2-ylsulfonamido)thiophene-2-carboxylic acid, disodium salt]",> 0.5 µM
3,"CC(C)(C)c1ccc(S(=O)(=O)Nc2ccsc2C(=O)O)c(N2CCOCC2)c1 [Example 3, 3-[4-tert-butyl-2-(morpholin-4-yl)phenylsulfonamido]thiophene-2-carboxylic acid]",0.1 to 0.5 µM
4,"CN(C)c1ccc(-c2cc(C(C)(C)C)ccc2S(=O)(=O)Nc2ccsc2C(=O)O)cc1 [Example 4, 3-[5-tert-butyl-4′-(dimethylamino)biphenyl-2-ylsulfonamido]thiophene-2-carboxylic acid, disodium salt]",> 0.5 µM
5,"CC(C)(C)c1ccc(S(=O)(=O)Nc2ccsc2C(=O)O)c(-c2cncnc2)c1 [Example 5, 3-[4-tert-butyl-2-(pyrimidin-5-yl)phenylsulfonamido]thiophene-2-carboxylic acid, disodium salt]",> 0.5 µM
6,"CC(C)(C)c1ccc(S(=O)(=O)Nc2ccsc2C(=O)O)c(Cl)c1 [Example 6, 3-(4-tert-Butyl-2-chlorophenylsulfonamido)thiophene-2-carboxylic acid, disodium salt]",≤ 0.1 µM
7,"CC(C)(C)c1ccc(S(=O)(=O)Nc2ccsc2C(=O)O)c(/C=C/c2ccccc2)c1 [Example 7, 3-(4-tert-butyl-2-styrylphenylsulfonamido)thiophene-2-carboxylic acid, disodium salt]",0.1 to 0.5 µM
8,"COc1cc(C(C)(C)C)ccc1S(=O)(=O)Nc1ccsc1C(=O)O [Example 8, 3-(tert-butyl-2-methoxyphenylsulfonamido)thiophene-2-carboxylic acid, disodium salt]",≤ 0.1 µM
9,"CC(C)(C)c1ccc(S(=O)(=O)Nc2ccsc2C(=O)O)c(O)c1 [Example 9, 3-(4-tert-butyl-2-hydroxyphenylsulfonamido)thiophene-2-carboxylic acid, trisodium salt]",0.1 to 0.5 µM
10,"CC(C)(C)c1ccc(S(=O)(=O)Nc2ccsc2C(=O)O)c(C#N)c1 [Example 10, 3-(4-tert-butyl-2-cyanophenylsulfonamido)thiophene-2-carboxylic acid, disodium salt]",≤ 0.1 µM
11,"CC(C)(C)c1ccc(S(=O)(=O)Nc2ccsc2C(=O)O)c(CCc2ccccc2)c1 [Example 11, 3-(4-tert-butyl-2-phenethylphenylsulfonamido)thiophene-2-carboxylic acid, disodium salt]",≤ 0.1 µM
12,"CC(=O)Oc1cc(C(C)(C)C)ccc1S(=O)(=O)Nc1ccsc1C(=O)O [Example 12, 3-(2-acetoxy-4-tert-butylphenylsulfonamido)thiophene-2-carboxylic acid, disodium salt]",0.1 to 0.5 µM
13,"Cc1cc(C(C)(C)C)ccc1S(=O)(=O)Nc1ccsc1C(=O)O [Example 13, 3-(4-tert-butyl-2-methylphenylsulfonamido)thiophene-2-carboxylic acid, disodium salt]",≤ 0.1 µM
14,"CCC(C)c1ccc(S(=O)(=O)Nc2ccsc2C(=O)O)cc1 (stereo not shown) [Example 14, 3-(4-sec-butylphenylsulfonamido)thiophene-2-carboxylic acid, disodium salt]",≤ 0.1 µM
15,"CN(c1ccsc1C(=O)O)S(=O)(=O)c1ccc(C(C)(C)C)cc1 [Example 15, 3-(4-tert-butyl-N-methylphenylsulfonamido)thiophene-2-carboxylic acid, sodium salt]",> 0.5 µM
16,"CC(C)(C)c1ccc(S(=O)(=O)Nc2ccsc2C(=O)O)cc1 [Example 16, 3-(4-tert-butylphenylsulfonamido)thiophene-2-carboxylic acid, disodium salt]",≤ 0.1 µM

row,Structure (SMILES),IC50
1,"O=C(O)c1sccc1NS(=O)(=O)c1ccc2ccccc2c1 [Example 17, 3-(Naphthalene-2-sulfonamido)thiophene-2-carboxylic acid, disodium salt]",> 0.5 µM
2,"CCC(C)(C)c1ccc(S(=O)(=O)Nc2ccsc2C(=O)O)cc1 [Example 18, 3-(4-(1,1-Dimethylpropyl)phenylsulfonamido)thiophene-2-carboxylic acid, sodium salt]",0.1 to 0.5 µM
3,"CCCCc1ccc(S(=O)(=O)Nc2ccsc2C(=O)O)c(Cl)c1 [Example 19, 3-(4-butyl-2-chlorophenylsulfonamido)thiophene-2-carboxylic acid, disodium salt]",≤ 0.1 µM
4,"O=C(O)c1sccc1NS(=O)(=O)c1ccc(Br)cc1 [Example 20, 3-(4-bromophenylsulfonamido)thiophene-2-carboxylic acid, disodium salt]",> 0.5 µM
5,"O=C(O)c1sccc1NS(=O)(=O)c1ccc2c(c1)CCCC2 [Example 21, 3-(5,6,7,8-tetrahydronaphthalene-2-sulfonamido)thiophene-2-carboxylic acid, disodium salt]",0.1 to 0.5 µM
6,"Cc1ccccc1-c1cccc(S(=O)(=O)Nc2ccsc2C(=O)O)c1 [Example 22, 3-(2′-methylbiphenyl-3-ylsulfonamido)thiophene-2-carboxylic acid, disodium salt]",> 0.5 µM
7,"O=C(O)c1sccc1NS(=O)(=O)c1ccc(N2CCOCC2)cc1 [Example 23, 3-[(4-morpholin-4-yl)phenylsulfonamido]thiophene-2-carboxylic acid, disodium salt]",> 0.5 µM
8,"CC(C)(C)c1ccc(S(=O)(=O)Nc2c(C(=O)O)sc3ccccc23)cc1 [Example 24, 3-(4-tert-butylphenylsulfonamido)benzo[b]thiophene-2-carboxylic acid, disodium salt]",0.1 to 0.5 µM
9,"CC(C)(C)c1ccc(S(=O)(=O)Nc2c(C(=O)O)sc3ccc(F)cc23)cc1 [Example 25, 3-(4-tert-butylphenylsulfonamido)-5-fluorobenzo[b]thiophene-2-carboxylic acid, disodium salt]",> 0.5 µM
10,"CC(C)(C)c1ccc(S(=O)(=O)Nc2c(C(=O)O)sc3ncccc23)cc1 [Example 26, 3-(4-tert-butylphenylsulfonamido)thieno[2,3-b]pyridine-2-carboxylic acid, disodium salt]",> 0.5 µM
11,"O=C(O)c1sccc1NS(=O)(=O)c1ccc(C(F)(F)F)cc1Br [Example 27, 3-[2-bromo-4-(trifluoromethyl)phenylsulfonamido]thiophene-2-carboxylic acid, disodium salt]",≤ 0.1 µM
12,"CC(C)(C)c1ccc(S(=O)(=O)Nc2ccsc2C(=O)O)c(Oc2ccccc2)c1 [Example 28, 3-(4-tert-butyl-2-phenoxyphenylsulfonamido)thiophene-2-carboxylic acid, disodium salt]",> 0.5 µM
13,"CC(C)(C)c1ccc(S(=O)(=O)Nc2ccsc2C(=O)O)c(F)c1 [Example 29, 3-(4-tert-butyl-2-fluorophenylsulfonamido)thiophene-2-carboxylic acid, disodium salt]",≤ 0.1 µM
14,"CC(C)(C)c1ccc(S(=O)(=O)Nc2ccsc2C(=O)O)c(/C=C/C(=O)O)c1 [Example 30, 3-[4-tert-butyl-2-(2-carboxyvinyl)phenylsulfonamido]thiophene-2-carboxylic acid, trisodium salt]",> 0.5 µM
15,"O=C(O)c1sccc1NS(=O)(=O)c1ccc(-n2cccn2)cc1 [Example 31, 3-[4-(1H-pyrazol-1-yl)phenylsulfonamido]thiophene-2-carboxylic acid, disodium salt]",> 0.5 µM
